Measurements reported in US5760036A, “Aminediol protease inhibitors” (E. R. Squibb & Sons, Inc., priority 1995, dated 1998).
Where a name gives a salt, the structure may show the parent alone. Read-outs that look alike come from different tables or passages of the source.

Tests used:
[1] = target: T1, HIV protease (Human immunodeficiency virus type 1 group M subtype B, UniProt P04585); test: HIV Protease Assay; type: biochemical
T1 construct: and purified protease
In short: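 Purified protease cleaved 450 μM octapeptide substrate in 50 mM sodium acetate pH 5.5 with 100 μg/ml BSA for 30 minutes at 37° C; product analyzed by reverse-phase HPLC at UV220 after H3PO4 quench. Inhibitors tested at final 10 μM with 4% DMSO.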

[2] = tested on: RF strain of HIV (CEM-SS cells); test: Cell Culture Anti-HIV Activity (cell viability, formazan); type: cell-based; settings: Human immunodeficiency virus 1, CEM-SS, 144 h, CEM-SS cells, RF strain of HIV, multiplicity of infection 0.04, 6 days at 37° C., 450 nm; read-out: HIV (CEM Cells) IC50
In short: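 CEM-SS cells (5000/well) infected with HIV RF at MOI 0.04, exposed to half-log serial compound dilutions, incubated 6 days at 37° C. Viability read by tetrazolium reduction to formazan, absorbance 450 nm. IC50 is the concentration raising formazan in infected cells to 50% of uninfected, drug-free cells.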

[3] = pH 5.5, 10 μM inhibitor, 4% DMSO, 450 μM substrate, pH 5.5, 30 minutes at 37° C., RP-HPLC, read-out: HIV Protease % Inhibition at 10 μM

| SMILES | inhibition at 10 µM [1, 3] [%] | inhibition at 10 µM ([1]; pH 5.5, read-out: HIV Protease % Inhibition at 10 μM) [%] | HIV Protease % Inhibition at 10 μM ([1]; 10 μM inhibitor, 4% DMSO, 450 μM substrate, pH 5.5, 30 minutes at 37° C., RP-HPLC) [%] | IC50 [2] [nM] |
| --- | --- | --- | --- | --- |
| CC(C)(C)OC(=O)N[C@@H](C/C=C/c1ccc(OCC(=O)N2CCOCC2)cc1)[C@H](O)CNC[C@@H](O)[C@H](Cc1ccccc1)NC(=O)OC(C)(C)C [Compound 276, [1S-[1R*,2S*(2S*,3R*)]]-[3-[[3-[[(1,1-Dimethylethoxy)carbonyl]amino]-2-hydroxy-6-[4-[2-(4-morpholinyl)-2-oxoethoxy]phenyl]-5-hexenyl]amino]-2-hydroxy-1-(phenylmethyl)propyl]carbamic acid, 1,1-dimethylethyl ester] | 97 |  |  | 130 |
| CC(C)[C@@H](NC(=O)OCc1ccccc1)C(=O)N[C@@H](Cc1ccccc1)[C@H](O)CNC[C@@H](O)[C@H](Cc1ccccc1)NC(=O)OC(C)(C)C [Compound 71, [R-[1S*,2R*(2R*, 3S*)]]-N-[3-[[3-[[(1,1-Dimethylethoxy)carbonyllamino]2-hydroxy-4-phenylbutyl]amino]-2-hydroxy-1-phenylmethyl)propyl]-N^2-[(phenylmethoxy)-carbonyl]-D-valinamide] | 58 |  |  | 1200 |
| CC(C)[C@H](NC(=O)OCc1ccccc1)C(=O)N[C@@H](Cc1ccccc1)[C@H](O)CNC[C@@H](O)[C@H](Cc1ccccc1)NC(=O)[C@@H](NC(=O)OCc1ccccc1)C(C)C [Compound 42, [1S-(1R*,2S*)]-N,N'-[Iminobis[2-hydroxy-1-(phenylmethyl)-3,1-proanediyl]bis[N^2-[(phenylmethoxy)carbonyl]-L-valinamide]] | 100 |  |  | 600 |
| CC(C)(C)OC(=O)N[C@@H](Cc1ccccc1)[C@H](O)CNC[C@@H](O)[C@H](Cc1ccccc1)NC(=O)O[C@H]1CCc2ccccc21 [Compound 146, [1S-(1R*,2S*)]-[Iminobis[2-hydroxy-1-(phenylmethyl)-3,1-propanediyl)]biscarbamic acid, 1,1-dimethylethyl(S)-2,3-dihydro-1H-inden-1-yl ester] | 98 |  |  | ≥ 3000 |
| CC(C)(C)[C@@](C)(O)C(=O)N[C@@H](Cc1ccccc1)[C@H](O)CNC[C@@H](O)[C@H](Cc1ccccc1)NC(=O)[C@](C)(O)C(C)(C)C [Compound 344, [2R-[R*(R*,S*)]]-N,N'-[Iminobis[2-hydroxy-l-(phenylmethyl)-3,1-propanediyl]]bis[2-hydroxy-2,3,3-trimethylbutaneamide]] | 99 |  |  | 30 |
| CC(C)[C@H](NC(=O)OCc1ccccc1)C(=O)N[C@@H](Cc1ccccc1)[C@H](O)CNC[C@@H](O)[C@H](Cc1ccccc1)NC(=O)OC(C)(C)C [Compound 52, [S-[1R*,2S*(2S*, 3R*)]-N-[3-[[3-[[(1,1-Dimethylethoxy)carbonyl]amino]-2-hydroxy-4-phenylbutyl]-amino]-2-hydroxy-1-(phenylmethyl)propyl-N^2-[(phenylmethoxy)carbonyl]-L-valinamide] | 100 |  |  | 200 |
| CC(C)[C@H](NC(=O)OCc1ccccc1)C(=O)N[C@@H](Cc1ccccc1)[C@H](O)CNC[C@H](O)[C@H](Cc1ccccc1)NC(=O)OC(C)(C)C [Compound 125, [S-[1R*,2S*(2R*,3R*)]-N-[3-[[3-[[(1,1-Dimethylethoxy)carbonyl]amino]-2-hydroxy-4-phenylbutyl]amino]-2-hydroxy-1-(phenylmethyl)propyl]-N^2 [(phenylmethoxy)carbonyl]-L-valinamide] | 71 |  |  | > 1500 |
| C[C@H](NC(=O)OCc1ccccc1)C(=O)N[C@@H](Cc1ccccc1)[C@H](O)CNC[C@@H](O)[C@H](Cc1ccccc1)NC(=O)OC(C)(C)C (relative stereo) [Compound 243, [1R*,2S*(2S*,3R*)]-N-[3-[[3-[[(1,1-Dimethylethoxy)carbonyl]amino]-2-hydroxy-4-phenylbutyl]-2-hydroxy-1-(phenylmethyl)propyl]-N^2-[(phenylmethoxy)carbonyl]-L-alaninamide] | 99 |  |  | 80 |

Continued, in another order:

| inhibition at 10 µM [1, 3] [%] | inhibition at 10 µM ([1]; pH 5.5, read-out: HIV Protease % Inhibition at 10 μM) [%] | HIV Protease % Inhibition at 10 μM ([1]; 10 μM inhibitor, 4% DMSO, 450 μM substrate, pH 5.5, 30 minutes at 37° C., RP-HPLC) [%] | SMILES | IC50 [2] [nM] |
| --- | --- | --- | --- | --- |
| 83 |  |  | CC[C@H](C)[C@H](NC(=O)OCc1ccccc1)[C@H](O)CNC[C@@H](O)[C@H](Cc1ccccc1)NC(=O)OC(C)(C)C [Compound 16, [2S-[2R*,[S*(2S*,3R*)]]-[1-Hydroxy-3-[[(1,1-dimethylethoxy)carbonyl]-amino]-2-hydroxy-4-phenylbutyl]amino]ethyl-2-methylbutyl]carbamic acid, phenylmethyl ester] | ≥ 2300 |
| 98 |  |  | CC(C)(C)OC(=O)N[C@@H](Cc1ccccc1)[C@H](O)CNC[C@@H](O)[C@H](Cc1c[nH]c2ccccc12)NC(=O)OC(C)(C)C [Compound 23, [1S-[1R*,2S*(2S*,3R*)]]-[3-[[3-[[(1,1-Dimethylethoxy)carbonyl]amino]-2-hydroxy-4-(1H-indol-3-ylmethyl)butyl]amino]-2-hydroxy-1-(phenylmethyl)propyl]carbamic acid, 1,1-dimethylethyl ester] | 450 |
| 96 |  |  | CC(C)(C)OC(=O)N[C@@H](Cc1ccccc1)[C@H](O)CNC[C@@H](O)[C@H](Cc1ccccc1)NC(=O)OC(C)(C)Cc1ccccc1 [Compound 154, [R-(R*,S*)]-Iminobis[2-hydroxy-1-(phenylmethyl)-3,1-propanediyl)]biscarbamic acid, 1,1-dimethylethyl 1,1-dimethyl-2-phenylethyl ester] | > 1200 |
| 99 |  |  | COC(=O)N[C@H](C(=O)N[C@@H](Cc1ccccc1)[C@H](O)CNC[C@@H](O)[C@H](Cc1ccccc1)NC(=O)OC(C)(C)CO)C(C)(C)C (relative stereo) [Compound 359, [1R*,2S*(2S*,3R*)]-N-[2-Hydroxy-3-[[2-hydroxy-3-[[(2-hydroxy-1,1-dimethylethoxy)-carbonyl]amino]-4-phenylbutyl]amino]-1-(phenylmethyl)propyl]-N^2-(2-methoxycarbonyl)-3-methyl-L-valinamide] | 560 |
| 100 |  |  | CC(C)(CO)OC(=O)N[C@@H](Cc1ccccc1)[C@H](O)CNC[C@@H](O)[C@H](Cc1ccccc1)NC(=O)OC(C)(C)CO [Compound 165, [R-(R*,S*)]-[Iminobis[2-hydroxy-1-(phenylmethyl)-3,1-propanediyl)biscarbamic acid, bis(2-hydroxy-1,1-dimethylethyl) ester] | 620 |
| 95 |  |  | CC(C)[C@H](NC(=O)OC[C@@H](O)CO)C(=O)N[C@@H](Cc1ccccc1)[C@H](O)CNC[C@@H](O)[C@H](Cc1ccccc1)NC(=O)OC(C)(C)C (relative stereo) [Compound 202, [[1R*,2S*(2S*,3R*)],N^2-(R*)]-N^2-[(2,3-Dihydroxypropoxy)carbonyl]-N-[3-[[3-[[(1,1-dimethylethoxy)carbonyl]amino]-2-hydroxy-4-phenylbutyl]amino]-2-hydroxy-1-(phenylmethyl)propyl]-L-valinamide] | 16000 |
| 98 |  |  | CC(C)(C)OC(=O)N[C@@H](Cc1ccccc1)[C@H](O)CNC[C@@H](O)[C@H](Cc1ccccc1O)NC(=O)OC(C)(C)C [Compound 350, [1S-[1R*,2S*(2S*,3R*)]]-[3-[[3-[[(1,1-Dimethylethoxy)carbonyl]amino]-2-hydroxy-4-(2-hydroxyphenyl)butyl]amino]-2-hydroxy-1-(phenylmethyl)propyl]carbamic acid, 1,1-dimethylethyl ester] | 500 |
|  | 99 |  | CC(C)(C)OC(=O)N[C@@H](Cc1ccccc1)[C@H](O)CNC[C@@H](O)[C@H](Cc1ccccc1)NC(=O)C(C)(O)C(C)(C)CO (single isomer, unassigned; isomer a) [Compound 356, [1S-[1R*,2S*(2S*,3R*)]]-[3-[3-[2,4-Dihydroxy-2,3,3-trimethyl-1-oxobutyl)amino]-2-hydroxy-4-phenylbutyl]amino]-2-hydroxy-1-(phenylmethyl)propyl]carbamic acid, 1,1-dimethylethyl ester, isomer A] | 120 |
| 100 |  |  | CC(C)[C@H](NC(=O)[C@H](C)N)C(=O)N[C@@H](Cc1ccccc1)[C@H](O)CNC[C@@H](O)[C@H](Cc1ccccc1)NC(=O)OC(C)(C)C [Compound 96, [S-[1R*,2S*(2S*,3R*)]-N-]3-[[3-[[(1,1-Dimethylethoxy)carbonyl]amino]-2-hydroxy-4-phenylbutyl]amino]-2-hydroxy-1(phenylmethyl)propyl]-N^2-(L-alanyl)-L-valinamide, fumarate salt] | > 7600 |
| 61 |  |  | COCC(C)(C)OC(=O)N[C@@H](Cc1ccccc1)[C@H](O)CNC[C@@H](O)[C@H](Cc1ccccc1)NC(=O)OC(C)(C)C [Compound 168, [R-(R*,S*)]-[Iminobis[2-hydroxy-1-(phenylmethyl)-3,1-propanediyl)biscarbamic acid, 1,1-dimethylethyl 2-methoxy-1,1-dimethylethyl ester] | 1400 |
|  |  | 95 | CC(C)(C)OC(=O)N[C@@H](Cc1ccccc1)[C@H](O)CNC[C@@H](O)[C@H](Cc1ccccc1)NC(=O)C(CCO)C(C)(C)C (single isomer, unassigned; isomer a) [Compound 312, [1S-[1R*, 2S* (2S*, 3R*)]]-[3-[[3-[[2-(1,1-Dimethylethyl)-4-hydroxy-1-oxobutyl]amino]-2-hydroxy-4-phenylbutyl]amino]-2-hydroxy-1-(phenylmethyl)propyl]carbamic acid, 1,1-dimethylethyl ester, isomer A] | 3500 |
